62 compounds from patent publication US6979686B1, “Substituted pyrazoles as p38 kinase inhibitors” (Pharmacia Corporation, priority 2001, dated 2005) can be followed below.

In the first test the target is T1, human p38 kinase alpha (Homo sapiens, UniProt Q16539).
T1 construct: GST (N, cleaved yes); made in house; host or cells: E. coli DH10B
T1 sequence (Q16539 whole entry): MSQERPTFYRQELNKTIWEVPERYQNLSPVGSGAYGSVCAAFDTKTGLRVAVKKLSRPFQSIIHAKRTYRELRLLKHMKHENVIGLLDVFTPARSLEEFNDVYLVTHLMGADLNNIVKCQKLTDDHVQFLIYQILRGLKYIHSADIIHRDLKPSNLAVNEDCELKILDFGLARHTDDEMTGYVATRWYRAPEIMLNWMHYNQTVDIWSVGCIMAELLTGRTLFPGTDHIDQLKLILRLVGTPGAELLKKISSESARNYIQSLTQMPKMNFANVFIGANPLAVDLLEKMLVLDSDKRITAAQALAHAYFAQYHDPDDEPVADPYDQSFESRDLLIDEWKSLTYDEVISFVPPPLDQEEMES
Description: p38 kinase in vitro assay, phosphorylation of biotinylated PHAS-I with 32P-ATP. The format is biochemical. Particulars: @ 1.0 uM.
`C=CCOC(=O)NCCc1[nH]nc(-c2ccc(F)cc2)c1-c1ccncc1` [Example B-0985]: the “P38 alpha kinase % inhib @ conc. (uM)” value came out at 86.0% @. `O=C(NCCCc1[nH]nc(-c2ccc(F)cc2)c1-c1ccncc1)C1CCCN1` (centres unmarked) [Example B-1232]: the “P38 alpha kinase % inhib @ conc.” value was determined as 81.0% @. With `CC(=O)OC(C)C(=O)NCCc1[nH]nc(-c2ccc(F)cc2)c1-c1ccncc1` (centres unmarked) [Example B-0993], the “P38 alpha kinase % inhib @ conc. (uM)” value was determined as 57.0% @. For `O=C(NCCCc1[nH]nc(-c2ccc(F)cc2)c1-c1ccncc1)c1cnc2ccccc2n1` [Example B-1189], the “P38 alpha kinase % inhib @ conc. (uM)” value is 68.0% @.

Take `COc1ccccc1C(=O)NCCCc1[nH]nc(-c2ccc(F)cc2)c1-c1ccncc1` [Example B-1172]: the “P38 alpha kinase % inhib @ conc. (uM)” value is recorded as 68.0% @. The same measure, in the same setting: the result for `C[C@H](NC(=O)NCCc1[nH]nc(-c2ccc(F)cc2)c1-c1ccncc1)c1ccccc1` [Example B-1042] reads 79.0% @.

Regarding `CCCCS(=O)(=O)NCCCc1[nH]nc(-c2ccc(F)cc2)c1-c1ccncc1` [Example B-1199], the “P38 alpha kinase % inhib @ conc.” value stood at 87.0% @.

As to `CC(C)C(=O)NCCCc1[nH]nc(-c2ccc(F)cc2)c1-c1ccncc1` [Example B-1160], the “P38 alpha kinase % inhib @ conc. (uM)” value is 79.0% @. Turning to `CCCS(=O)(=O)NCCc1[nH]nc(-c2ccc(F)cc2)c1-c1ccncc1` [Example B-1021], the “P38 alpha kinase % inhib @ conc. (uM)” value was determined as 82.0% @.

As for `O=C(NCCCc1[nH]nc(-c2ccc(F)cc2)c1-c1ccncc1)Nc1ccccc1F` [Example B-1215], the “P38 alpha kinase % inhib @ conc.” value came out at 86.0% @. As for `O=S(=O)(Cc1ccccc1)NCCc1[nH]nc(-c2ccc(F)cc2)c1-c1ccncc1` [Example B-1017], the “P38 alpha kinase % inhib @ conc. (uM)” value was determined as 96.0% @.

The same test, now with this note: @ 1.0 uM; read-out: P38 alpha kinase % inhib @ conc.
For `COc1ccc(OC)c(CC(=O)NCc2[nH]nc(-c3ccc(F)cc3)c2-c2ccncc2)c1` [Example B-0013], the inhibition at 1 µM was 70%.

As for `O=C(NCc1[nH]nc(-c2ccc(F)cc2)c1-c1ccncc1)c1ccc(I)cc1` [Example B-0017], the inhibition at 1 µM stood at 56%.

The test is the same for the next values; noted with them: @ 10.0 uM.
For `Cc1c(-c2ccncc2)c(-c2ccc(F)cc2)nn1CC(=O)Nc1cc(F)cc(F)c1` [Example B-2438], the “P38 alpha kinase IC50, uM or % inhib @ conc. (uM): % inhib” value (from here on “P38 alpha kinase IC50 … % inhib”) is reported as 75.0% @. On the same count and under the same terms, the result for `COCCN(CC1CCCCC1)C(=O)Cn1nc(-c2ccc(F)cc2)c(-c2ccncc2)c1C` [Example B-2392] reads 63.0% @. On to `CCN(CC)CC(C)NC(=O)Cn1nc(-c2ccc(F)cc2)c(-c2ccncc2)c1C` (centres unmarked) [Example B-2337], for which the “P38 alpha kinase % inhib @ conc.” value was found to be 46.0% @. Same read-out and setting: the result for `Cc1c(-c2ccncc2)c(-c2ccc(F)cc2)nn1CC(=O)N(Cc1ccco1)CC(C)C` [Example B-2378] reads 48.0% @. For the compound `Cc1c(-c2ccncc2)c(-c2ccc(F)cc2)nn1CC(=O)Nc1ccc(C(F)(F)F)cc1` [Example B-2439], the “P38 alpha kinase IC50 … % inhib” value amounted to 81.0% @.

The test is the same for the next values; noted with them: @ 100.0 uM.
With `Cc1c(-c2ccncc2)c(-c2ccc(F)cc2)nn1CC(=O)N(CCC#N)CC1CCCO1` (centres unmarked) [Example B-2404], the “P38 alpha kinase IC50 … % inhib” value is given as 58% @.

The same test, now with this note: Table 8; 1% DMSO; read-out: p38α Kinase Assay IC50.
For the compound `O=C(O)CCC(=O)N1CCN(c2n[nH]c(-c3ccc(Cl)cc3)c2-c2ccncc2)CC1` [A-321 (dihydrate), 4-[5-(4-chlorophenyl)-4-(4-pyridinyl)-1H-pyrazol-3-yl]-γ-oxo-1-piperazinebutanoic acid, dihydrate], the concentration for half-maximal inhibition (IC50) (in general, the concentration that inhibits the measured activity by half) was determined as 770 nM. For `CS(=O)(=O)N1CCN(c2n[nH]c(-c3ccc(Cl)cc3)c2-c2ccncc2)CC1` [Example A-320, 1-[5-(4-chlorophenyl)-4-(4-pyridinyl)-1H-pyrazol-3-yl]-4-(methylsulfonyl)piperazine, monohydrate], the IC50 is 270 nM.

Staying with this test, now noted: activated human p38 kinase alpha, PHAS-I substrate, 50 μM unlabeled ATP; read-out: p38 kinase IC50.
For the compound `Cc1cccc(-c2n[nH]c(-c3cccc(C)c3)c2-c2ccncc2)c1` [Example A-28], the IC50 is 300 nM.

On to `Cc1[nH]nc(-c2ccc(Cl)cc2Cl)c1-c1ccncc1` [Example A-50], for which the half-inhibitory concentration (IC50) turned out to be 2300 nM.

Staying with this test, now noted: in vitro P38-alpha kinase inhibition; read-out: P38 alpha kinase IC50.
Take `COc1ccc(Br)cc1S(=O)(=O)NCCc1[nH]nc(-c2ccc(F)cc2)c1-c1ccncc1` [Example B-1102]: the IC50 was 35 nM. The same measure, in the same setting: the result for `O=S(=O)(NC(Cc1ccccc1)c1[nH]nc(-c2ccc(F)cc2)c1-c1ccncc1)C(F)(F)F` (centres unmarked) [Example B-0758] reads 1500 nM. Consider `CCNC(=O)NC(C)c1[nH]nc(-c2ccc(F)cc2)c1-c1ccncc1` (centres unmarked) [Example B-0598], for which the IC50 was 2120 nM. Regarding `O=C(NCCc1[nH]nc(-c2ccc(F)cc2)c1-c1ccncc1)c1cccs1` [Example B-1156], the IC50 was 270 nM. The same measure, in the same setting: the result for `Cc1cc(C)c(C(=O)NC(C)c2[nH]nc(-c3ccc(F)cc3)c2-c2ccncc2)c(C)c1` (centres unmarked) [Example B-0682] reads 760 nM. Still for that read-out and setting: the result for `CNC(=O)CCC(NC(=O)c1ccccc1I)c1[nH]nc(-c2ccc(F)cc2)c1-c1ccncc1` (centres unmarked) [Example B-0861] reads 1320 nM; that for `CC(NC(=O)c1cccc(Cl)c1Cl)c1[nH]nc(-c2ccc(F)cc2)c1-c1ccncc1` (centres unmarked) [Example B-0681], 1960 nM.

Turning to `CC(NC(=O)c1cnc2ccccc2n1)c1[nH]nc(-c2ccc(F)cc2)c1-c1ccncc1` (centres unmarked) [Example B-0561], the IC50 was 2070 nM. `CC(NS(=O)(=O)c1cccc2c(N(C)C)cccc12)c1[nH]nc(-c2ccc(F)cc2)c1-c1ccncc1` (centres unmarked) [Example B-0621]: the half-inhibitory concentration (IC50) was 360 nM.

As for `CC(NC(=O)C1CCC1)c1[nH]nc(-c2ccc(F)cc2)c1-c1ccncc1` (centres unmarked) [Example B-0537], the concentration for half-maximal inhibition (IC50) is 3440 nM. The same measure, in the same setting: the result for `O=C(NCCc1[nH]nc(-c2ccc(F)cc2)c1-c1ccncc1)c1cc(F)cc(C(F)(F)F)c1` [Example B-1141] reads 2470 nM; that for `CC(NS(=O)(=O)c1c(Cl)cccc1Cl)c1[nH]nc(-c2ccc(F)cc2)c1-c1ccncc1` (centres unmarked) [Example B-0630], 60 nM. On the same count and under the same terms, the result for `O=C(NCCc1[nH]nc(-c2ccc(F)cc2)c1-c1ccncc1)c1c(F)cccc1F` [Example B-1151] reads 320 nM. On the same count and under the same terms, the result for `C=CCOC(=O)NC(C)c1[nH]nc(-c2ccc(F)cc2)c1-c1ccncc1` (centres unmarked) [Example B-0534] reads 410 nM. As for `CNC(=O)CCC(NC(=O)Nc1ccc(OC)cc1OC)c1[nH]nc(-c2ccc(F)cc2)c1-c1ccncc1` (centres unmarked) [Example B-0884], the concentration for half-maximal inhibition (IC50) came to 1890 nM. Still for that read-out and setting: the result for `COc1ccc(S(=O)(=O)NC(Cc2ccccc2)c2[nH]nc(-c3ccc(F)cc3)c2-c2ccncc2)cc1` (centres unmarked) [Example B-0764] reads 670 nM; that for `CC(NS(=O)(=O)c1ccccc1C(F)(F)F)c1[nH]nc(-c2ccc(F)cc2)c1-c1ccncc1` (centres unmarked) [Example B-0635], 150 nM; that for `O=S(=O)(NC(Cc1ccccc1)c1[nH]nc(-c2ccc(F)cc2)c1-c1ccncc1)c1cccs1` (centres unmarked) [Example B-0720], 1300 nM.

Regarding `O=S(=O)(NC(Cc1ccccc1)c1[nH]nc(-c2ccc(F)cc2)c1-c1ccncc1)c1ccccc1F` (centres unmarked) [Example B-0714], the IC50 is 3700 nM. For `CC(NS(=O)(=O)c1ccc(F)cc1)c1[nH]nc(-c2ccc(F)cc2)c1-c1ccncc1` (centres unmarked) [Example B-0562], the IC50 came out at 220 nM. In the case of `O=S(=O)(C=Cc1ccccc1)NC(Cc1ccccc1)c1[nH]nc(-c2ccc(F)cc2)c1-c1ccncc1` (centres unmarked) [Example B-0755], the IC50 stood at 2300 nM. On the same count and under the same terms, the result for `CCCCS(=O)(=O)NC(Cc1ccccc1)c1[nH]nc(-c2ccc(F)cc2)c1-c1ccncc1` (centres unmarked) [Example B-0761] reads < 100 nM. Same read-out and setting: the result for `O=S(=O)(Cc1ccccc1)NC(Cc1ccccc1)c1[nH]nc(-c2ccc(F)cc2)c1-c1ccncc1` (centres unmarked) [Example B-0756] reads 940 nM; that for `CC(NC(=O)c1c(F)cccc1C(F)(F)F)c1[nH]nc(-c2ccc(F)cc2)c1-c1ccncc1` (centres unmarked) [Example B-0686], 420 nM; that for `O=C(NCCc1[nH]nc(-c2ccc(F)cc2)c1-c1ccncc1)c1c(F)cc(F)cc1F` [Example B-1135], 230 nM. The same measure, in the same setting: the result for `O=C(NCc1ccccc1)NC(Cc1ccccc1)c1[nH]nc(-c2ccc(F)cc2)c1-c1ccncc1` (centres unmarked) [Example B-0770] reads 2300 nM.

Still in this test, the particulars now being: in vitro P38-alpha kinase; read-out: P38 alpha kinase IC50.
Turning to `O=C(O)c1ccccc1S(=O)(=O)NCc1[nH]nc(-c2ccc(F)cc2)c1-c1ccncc1` [Example B-0228], the IC50 came to 150 nM.

Take `O=C(NCCCc1[nH]nc(-c2ccc(F)cc2)c1-c1ccncc1)c1ccc(Cl)cc1Cl` [Example B-1345]: the IC50 came to 270 nM. The same measure, in the same setting: the result for `Cc1c(-c2ccncc2)c(-c2ccc(F)cc2)nn1CC(=O)NCCCN1CCCC1=O` [Example B-2280] reads 400 nM; that for `Cc1ccccc1S(=O)(=O)NCCCc1[nH]nc(-c2ccc(F)cc2)c1-c1ccncc1` [Example B-1274], < 100 nM.

Regarding `O=C(NCCCc1[nH]nc(-c2ccc(F)cc2)c1-c1ccncc1)c1cc2ccccc2s1` [Example B-1325], the half-inhibitory concentration (IC50) turned out to be 270 nM.

For the compound `CC(C)OC(=O)N1CCC(c2[nH]nc(-c3ccc(F)cc3)c2-c2ccncc2)CC1` [Example B-1425], the IC50 turned out to be 90 nM.

With `Cc1c(-c2ccncc2)c(-c2ccc(F)cc2)nn1CC(=O)NCCCCc1ccccc1` [Example B-2300], the IC50 was 70 nM. The same measure, in the same setting: the result for `O=S(=O)(NCCCc1[nH]nc(-c2ccc(F)cc2)c1-c1ccncc1)c1c(Cl)cccc1Cl` [Example B-1258] reads 70 nM. On the same count and under the same terms, the result for `COC(=O)CCNC(=O)Cn1nc(-c2ccc(F)cc2)c(-c2ccncc2)c1C` [Example B-2301] reads 180 nM.

Regarding `O=C(NCCCc1[nH]nc(-c2ccc(F)cc2)c1-c1ccncc1)c1cccc(C(F)(F)F)c1F` [Example B-1339], the 50% inhibitory concentration (IC50) came to 120 nM.

As for `Cc1c(-c2ccncc2)c(-c2ccc(F)cc2)nn1CC(=O)NCc1ccccc1Cl` [Example B-2274], the IC50 is 260 nM.

For `O=C(NCCCc1[nH]nc(-c2ccc(F)cc2)c1-c1ccncc1)c1c(F)cccc1F` [Example B-1352], the concentration for half-maximal inhibition (IC50) was found to be 13 nM. Still for that read-out and setting: the result for `O=S(=O)(NCCCc1[nH]nc(-c2ccc(F)cc2)c1-c1ccncc1)c1ccc(S(=O)(=O)c2ccccc2)s1` [Example B-1293] reads 310 nM.
